These results are taken from patent US20060024264A1, “Antimicrobial copolymers and uses thereof” (priority 2004, published 2006).

As usually defined, the MIC is the smallest concentration in the dilution series that meets the test's criterion for growth inhibition. A high value points to a need for much substance.

The test system of this experiment is E. coli. Briefly: Antimicrobial assays (MIC, cell growth by optical density at 595 nm). The class given is cell-based. The settings on record: Escherichia coli; incubation time 18 hours; 2-fold dilution series 500-3.9 μg/mL. On the procedure:
Antimicrobial assays. Each polymer was dissolved in DMSO (5 mg/mL). […] The polymer solutions with E. coli were incubated at 36° C. for 18 hours, and cell growth was measured by optical density at λ=595 nm (Liu, D., et al., Angew. Chem. Int. Ed., 43:1158 (2004); Tew, G. N., et al., PNAS 99:5110 (2002)).

Structures are written as SMILES.

`C=C(C)C(=O)OCCN.Cl` [Monomer, 2-aminoethyl methacrylate hydrochloride] gave an MIC of more than 500 µg/mL.
